According to patent US9108921B2, “Therapeutic compounds and compositions” (AGIOS PHARMACEUTICALS, INC, priority 2014, dated 2015):

Assays:
PKR R510Q = PKR R510Q (Homo sapiens, UniProt P30613, R510Q); test: PKR Mutant Assay, AC50 against PKR R510Q; format: biochemical; details: mutant PKR R510Q enzyme
Method in brief: (§1)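 Human PKR (WT or mutant, 80-400 ng/well) in 50 mM Tris pH 7.5, 100 mM KCl, 5 mM MgCl2, 1 mM DTT, 0.03% BSA with PEP 0.1-0.5 mM, NADH 180 uM and LDH, preincubated 60 min at room temperature with compound (11-point 3-fold series from 100 μM final, 1% DMSO). ADP 0.22-1.65 mM started reaction; A340 followed.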

PKR R532W = PKR R532W (Homo sapiens, UniProt P30613, R532W); test: PKR Mutant Assay, AC50 against PKR R532W; format: biochemical; details: mutant PKR R532W enzyme
Method in brief: as §1

PKR WT [1] = molecular target: T1, PKR WT (Homo sapiens, UniProt P30613); test: PKR WT enzymatic AC50 assay; format: biochemical; details: wild type PKR
Method in brief: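 Steps: compound added to wells, then reaction mix lacking ADP; 60 min room-temperature hold; ADP (0.22-1.65 mM) added to start; A340 monitored at room temperature via PEP/LDH/NADH coupling. Top final compound concentration 100 μM, 3-fold dilutions over 11 points.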

PKR WT [2] = molecular target: T1, PKR WT; test: PKR WT cell based AC50 assay; details: wild type PKR

T1 sequence (P30613 whole entry): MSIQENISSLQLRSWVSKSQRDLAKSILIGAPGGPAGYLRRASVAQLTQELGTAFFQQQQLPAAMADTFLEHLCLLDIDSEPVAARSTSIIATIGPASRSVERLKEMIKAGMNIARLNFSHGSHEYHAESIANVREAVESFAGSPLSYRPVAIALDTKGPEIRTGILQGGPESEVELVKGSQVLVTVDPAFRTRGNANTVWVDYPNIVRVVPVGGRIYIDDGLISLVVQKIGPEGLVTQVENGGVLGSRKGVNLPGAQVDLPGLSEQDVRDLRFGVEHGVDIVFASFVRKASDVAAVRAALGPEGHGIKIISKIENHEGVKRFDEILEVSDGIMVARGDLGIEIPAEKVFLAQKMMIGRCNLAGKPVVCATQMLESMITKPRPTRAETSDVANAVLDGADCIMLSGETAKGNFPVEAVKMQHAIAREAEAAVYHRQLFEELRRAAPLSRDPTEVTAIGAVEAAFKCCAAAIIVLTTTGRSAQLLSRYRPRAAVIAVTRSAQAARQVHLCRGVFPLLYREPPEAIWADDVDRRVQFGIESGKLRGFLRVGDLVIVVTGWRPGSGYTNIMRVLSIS
Chain of PKR R510Q (P30613 whole entry R510Q): as the sequence (P30613 whole entry) above, with R510Q counted along it
Chain of PKR R532W (P30613 whole entry R532W): as the sequence (P30613 whole entry) above, with R532W counted along it

AC50 (PKR R510Q) [nM]	AC50 (PKR R532W) [nM]	AC50 (PKR WT [1]) [nM]	AC50 (PKR WT [2]) [nM]	Compound
< 100	< 100	< 100	< 100	O=C(c1ccc(NS(=O)(=O)c2cccc3c2OCCC3)cc1)N1CCC(O)(c2ccccc2Cl)CC1 [Compound 102, N-(4-(4-(2-chlorophenyl)-4-hydroxypiperidine-1-carbonyl)phenyl)chroman-8-sulfonamide]
101 to 1000	< 100	< 100	< 100	O=C(c1ccc(NS(=O)(=O)c2cccc3cccnc23)cc1)N1CCC(O)(c2cccc(C(F)(F)F)c2)CC1 [Compound 199, N-(4-(4-hydroxy-4-(3-(trifluoromethyl)phenyl)piperidine-1-carbonyl)phenyl)quinoline-8-sulfonamide]
101 to 1000	< 100	< 100	< 100	COc1cccc(CC2(O)CCN(C(=O)c3ccc(NS(=O)(=O)c4cccc5cccnc45)cc3)CC2)c1 [Compound 135, N-(4-(4-hydroxy-4-(3-methoxybenzyl)piperidine-1-carbonyl)phenyl)quinoline-8-sulfonamide]
< 100	< 100	< 100	< 100	CC(C)CC1(O)CCN(C(=O)c2ccc(NS(=O)(=O)c3cccc4ncc(N)nc34)cc2)CC1 [Compound 437]
101 to 1000	< 100	< 100	101 to 1000	O=C(c1ccc(NS(=O)(=O)c2cccc3cccnc23)cc1)N1CCC(O)(Cc2cccc(C(F)(F)F)c2)CC1 [Compound 152, N-(4-(4-hydroxy-4-(3-(trifluoromethyl)benzyl)piperidine-1-carbonyl)phenyl)quinoline-8-sulfonamide]
< 100	< 100	< 100	< 100	CC(C)CC1(O)CCN(C(=O)c2ccc(NS(=O)(=O)c3cccc4scnc34)cc2)CC1 [Compound 173, N-(4-(4-hydroxy-4-isobutylpiperidine-1-carbonyl)phenyl)benzo[d]thiazole-4-sulfonamide]
< 100	< 100	< 100	< 100	Cc1ccccc1CC1(O)CCN(C(=O)c2ccc(NS(=O)(=O)c3cccc4cccnc34)cc2)CC1 [Compound 108, N-(4-(4-hydroxy-4-(2-methylbenzyl)piperidine-1-carbonyl)phenyl)quinoline-8-sulfonamide]
101 to 1000	< 100	< 100	1010 to 10000	Cc1cc(C(=O)N2CCC(O)(c3cccc(F)c3F)CC2)ccc1NS(=O)(=O)c1ccc(F)c2cccnc12 [Compound 220, N-(4-(4-(2,3-difluorophenyl)-4-hydroxypiperidine-1-carbonyl)-2-methylphenyl)-5-fluoroquinoline-8-sulfonamide]
101 to 1000	< 100	< 100	< 100	O=C(c1ccc(NS(=O)(=O)c2cccc3cccnc23)c(F)c1)N1CCC(O)(Cc2ccccc2)CC1 [Compound 163, N-(4-(4-benzyl-4-hydroxypiperidine-1-carbonyl)-2-fluorophenyl)quinoline-8-sulfonamide]
< 100	< 100	< 100	< 100	CC(CC1(O)CCN(C(=O)c2ccc(NS(=O)(=O)c3cccc4sc(N)nc34)cc2)CC1)C(F)(F)F (stereo not shown) [Compound 429]
< 100	< 100	< 100	< 100	CC(C)CC1(O)CCN(C(=O)c2ccc(NS(=O)(=O)c3cccc4nccnc34)cc2)CC1 [Compound 160, N-(4-(4-hydroxy-4-isobutylpiperidine-1-carbonyl)phenyl)quinoxaline-5-sulfonamide]
< 100	< 100	< 100	< 100	O=C(c1ccc(NS(=O)(=O)c2cccc3cccnc23)cc1F)N1CCC(O)(Cc2ccccc2)CC1 [Compound 115, N-(4-(4-benzyl-4-hydroxypiperidine-1-carbonyl)-3-fluorophenyl)quinoline-8-sulfonamide]
101 to 1000	< 100	101 to 1000	101 to 1000	CC(F)(F)CCC1(O)CCN(C(=O)c2ccc(NS(=O)(=O)c3cccc4nccnc34)cc2OC(F)F)CC1 [Compound 436]
< 100	< 100	< 100	101 to 1000	CC(F)(F)CCC1(O)CCN(C(=O)c2ccc(NS(=O)(=O)c3cc(F)cc4sc(N)nc34)cc2)CC1 [Compound 435]
1010 to 10000	< 100	< 100	101 to 1000	O=C(c1ccc(NS(=O)(=O)c2cccc3ccc(F)nc23)cc1)N1CCC(O)(c2ccccc2Cl)CC1 [Compound 224, N-(4-(4-(2-chlorophenyl)-4-hydroxypiperidine-1-carbonyl)phenyl)-2-fluoroquinoline-8-sulfonamide]
101 to 1000	< 100	< 100	101 to 1000	Cc1cccc(CC2(O)CCN(C(=O)c3ccc(NS(=O)(=O)c4cccc5cccnc45)cc3)CC2)n1 [Compound 207, N-(4-(4-hydroxy-4-((6-methylpyridin-2-yl)methyl)piperidine-1-carbonyl)phenyl)quinoline-8-sulfonamide]
101 to 1000	< 100	101 to 1000	101 to 1000	Cn1cc(CC2(O)CCN(C(=O)c3ccc(NS(=O)(=O)c4cccc5scnc45)cc3)CC2)cn1 [Compound 434]
101 to 1000	< 100	< 100	< 100	O=C(c1ccc(NS(=O)(=O)c2cccc3cccnc23)cc1)N1CCC(O)(c2cccc(F)c2)CC1 [Compound 142, N-(4-(4-(3-fluorophenyl)-4-hydroxypiperidine-1-carbonyl)phenyl)quinoline-8-sulfonamide]
< 100	101 to 1000	< 100	< 100	Nc1nc2c(S(=O)(=O)Nc3ccc(C(=O)N4CCC(O)(/C=C/CC(F)(F)F)CC4)cc3)cccc2s1 [Compound 425]
< 100	< 100	< 100	< 100	CC(C)CC1(O)CCN(C(=O)c2ccc(NS(=O)(=O)c3cccc4ccc(N)nc34)cc2)CC1 [Compound 402, 2-amino-N-(4-(4-hydroxy-4-isobutylpiperidine-1-carbonyl)phenyl)quinoline-8-sulfonamide]
101 to 1000	< 100	< 100	< 100	O=C(c1ccc(NS(=O)(=O)c2cccc3scnc23)cc1)N1CCC(O)(CCCC(F)(F)F)CC1 [Compound 394, N-(4-(4-hydroxy-4-(4,4,4-trifluorobutyl)piperidine-1-carbonyl)phenyl)benzo[d]thiazole-4-sulfonamide]
< 100	< 100	< 100	< 100	Nc1nc2c(S(=O)(=O)Nc3ccc(C(=O)N4CCC(O)(c5ccccc5Cl)CC4)cc3)cc(F)cc2s1 [Compound 154, 2-amino-N-(4-(4-(2-chlorophenyl)-4-hydroxypiperidine-1-carbonyl)phenyl)-6-fluorobenzo[d]thiazole-4-sulfonamide]
101 to 1000	101 to 1000	101 to 1000	101 to 1000	O=C(c1ccc(NS(=O)(=O)c2cccc3c(O)ncnc23)cc1)N1CCC(O)(CCC(F)(F)F)CC1 [Compound 426]
101 to 1000	< 100	101 to 1000	101 to 1000	Cn1nccc1CC1(O)CCN(C(=O)c2ccc(NS(=O)(=O)c3cccc4scnc34)cc2)CC1 [Compound 433]
101 to 1000	< 100	< 100	< 100	Cc1cccnc1C1(O)CCN(C(=O)c2ccc(NS(=O)(=O)c3cccc4cccnc34)cc2)CC1 [Compound 153, N-(4-(4-hydroxy-4-(3-methylpyridin-2-yl)piperidine-1-carbonyl)phenyl)quinoline-8-sulfonamide]
